SMILES strings stand for the structures. Values joined by “and” are separate entries in the source; they are usually repeats but may differ in a detail not shown here. Identical values can stand only once.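 96-well plates; 48 h exposure; 5 concentrations. Endpoints by linear interpolation between flanking doses. Not reached: highest tested concentration assigned. At the GI50, growth is halved. At the TGI there is no net growth.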 *1 amine or outer side, *2 acyl side, *3 side chain or, on linkers, in order; H or OH if unused. Where a SMILES comes first, the peptide text is derived from it. [ ]: non-standard residue; d: D form. The star is where a group is joined. X12 = NCCCCC(N[*:1])C(=O)CN1CCCC1C(=O)[*:2]; Pentadecanoyl = CCCCCCCCCCCCCCC(=O)*

Among the test systems are PC-3 prostate; HT29 colon; EKVX NSCLC; NCI-H23 lung; LOX IMVI melanoma; UACC-62 melanoma; RPMI-8226 leukemia; OVCAR-4 ovarian; HL-60(TB) leukemia; CCRF-CEM leukemia.
Common to all, as to assay: NCI-60 cell line screen, 48 h

For the molecule `Oc1[nH]c2ccccc2c1N=NC(=S)NCc1ccccn1`, the TGI was 17.5 µM in the assay with PC-3 prostate; above 43 µM in the assay with HT29 colon; 12.5 µM with EKVX NSCLC; 14.9 µM in the assay with NCI-H23 lung; 15.3 µM in the assay with LOX IMVI melanoma; 2.6 µM in the assay on UACC-62 melanoma. For the same molecule, the TGI in the assay with RPMI-8226 leukemia was 53.9 µM; in the assay with OVCAR-4 ovarian it was 21 µM.
As for `CN(C)CC(C)(C)C(=O)/C=C/c1ccccc1`, the TGI is 33.9 µM in the assay with HT29 colon; 38.3 µM with EKVX NSCLC; 45.5 µM in the assay on NCI-H23 lung; 25.6 µM in the assay on LOX IMVI melanoma; 26.7 µM in the assay on HL-60(TB) leukemia; 23.2 µM in the assay with CCRF-CEM leukemia. In addition, the figures for the TGI with UACC-62 melanoma, in the assay with RPMI-8226 leukemia and in the assay on OVCAR-4 ovarian were 26.5 µM, 56.6 µM and 31.6 µM, respectively.
Consider `O=c1[nH]c(=O)c2c([nH]1)[nH]c1ccccc12`, for which the TGI with HT29 colon, in the assay on EKVX NSCLC, in the assay with NCI-H23 lung, in the assay with LOX IMVI melanoma, with CCRF-CEM leukemia and with UACC-62 melanoma was above 100 µM in each case. The TGI in the assay with RPMI-8226 leukemia and in the assay with OVCAR-4 ovarian was above 100 µM in each case.
For the molecule `COc1ccc(C2CCc3c(cnc4nc(N)nc(N)c34)C2)cc1` (centres undefined), the TGI in the assay on PC-3 prostate, in the assay with HT29 colon, in the assay with EKVX NSCLC, in the assay with LOX IMVI melanoma, in the assay with HL-60(TB) leukemia and in the assay with UACC-62 melanoma was above 100 µM each time. Besides, the TGI in the assay on RPMI-8226 leukemia and with OVCAR-4 ovarian was above 100 µM each time.
`Cc1cc(N)c2cc(NC(=O)CCCCCCCCC(=O)Nc3ccc4nc(C)cc(N)c4c3)ccc2n1`: the TGI in the assay with HT29 colon was above 100 µM; in the assay with EKVX NSCLC, above 89 µM; in the assay with NCI-H23 lung, above 100 µM; in the assay on LOX IMVI melanoma, above 100 µM; in the assay on HL-60(TB) leukemia, above 100 µM; in the assay with CCRF-CEM leukemia, above 61.3 µM. The TGI in the assay with UACC-62 melanoma, with RPMI-8226 leukemia and in the assay on OVCAR-4 ovarian was above 100 µM in each case.
For the molecule `COC1OC(=O)C(OC)C(OC)C1OC` (centres undefined), the TGI with PC-3 prostate, in the assay on HT29 colon, with EKVX NSCLC, in the assay with LOX IMVI melanoma, in the assay with HL-60(TB) leukemia and in the assay on UACC-62 melanoma was above 100 µM in each case. For the same molecule, the TGI in the assay on RPMI-8226 leukemia and with OVCAR-4 ovarian was above 100 µM in each case.
In the case of `COc1cc2c3c4[n+](cc2c(OC)c1OC)CCC4CCC3` (centres undefined), the TGI in the assay on PC-3 prostate, in the assay with HT29 colon, in the assay on EKVX NSCLC, with NCI-H23 lung, in the assay with LOX IMVI melanoma and in the assay with CCRF-CEM leukemia was above 100 µM each time. In addition, the TGI in the assay on UACC-62 melanoma, in the assay with RPMI-8226 leukemia and in the assay with OVCAR-4 ovarian was above 100 µM throughout.
With `Cc1cnc2[nH]c(-c3sccc3C)cc(=O)c2c1`, the TGI in the assay on PC-3 prostate was above 100 µM; in the assay on HT29 colon, 10.3 µM; in the assay with EKVX NSCLC, above 100 µM; in the assay on NCI-H23 lung, above 100 µM; in the assay on LOX IMVI melanoma, above 100 µM; in the assay with CCRF-CEM leukemia, above 100 µM. The TGI in the assay with UACC-62 melanoma is above 54.3 µM; in the assay with RPMI-8226 leukemia, above 100 µM; in the assay with OVCAR-4 ovarian it was above 100 µM.
As for `CCOC(=O)C1=C(C)N(c2ccc(Cl)cc2)C2(O)C=CC(=O)C3C(=O)N(c4ccccc4)C(=O)C132` (centres undefined), the TGI in the assay with PC-3 prostate came out at 3.49 µM; with HT29 colon, 3.18 µM; with EKVX NSCLC, 4.38 µM; in the assay with NCI-H23 lung, 4.75 µM; with LOX IMVI melanoma, 3.69 µM; with HL-60(TB) leukemia it was 6.21 µM. Moreover, the TGI in the assay with UACC-62 melanoma came out at 3.63 µM; in the assay with RPMI-8226 leukemia, 3.77 µM; with OVCAR-4 ovarian it was 3.25 µM.
As for `COc1cccc2c1C(=O)c1c(O)c3c(c(O)c1C2=O)C[C@@](O)(C(=O)CO)CC3OC1CC(NCCCCC(OC(C)=O)OC(C)=O)C(O)C(C)O1` (some centres undefined), the GI50 in the assay on HT29 colon was 0.00103 µM; in the assay on EKVX NSCLC, 0.00368 µM; in the assay with NCI-H23 lung, 0.000808 µM; with LOX IMVI melanoma it was 0.488 nM; in the assay with CCRF-CEM leukemia it was 0.000538 µM; in the assay with UACC-62 melanoma it was 0.655 nM. Also, the GI50 in the assay on RPMI-8226 leukemia was 0.000528 µM. Besides, the TGI was 0.0125 µM with HT29 colon; 0.0143 µM in the assay with EKVX NSCLC; 0.00237 µM with NCI-H23 lung; 0.00829 µM and 0.0302 µM in the assay with LOX IMVI melanoma; 0.00428 µM in the assay with HL-60(TB) leukemia; 0.0118 µM in the assay on CCRF-CEM leukemia. The TGI in the assay with UACC-62 melanoma was 0.00374 µM and 0.00228 µM; with RPMI-8226 leukemia, 0.00313 µM; with OVCAR-4 ovarian, 0.00449 µM and 0.00985 µM.
Take `CCCCCCCCCCCCCCC(=O)NC(CCCCN)C(=O)CN1CCCC1C(=O)NCC(=O)NC(Cc1ccccc1)C(=O)N1CCCC1C(=O)NC(CO)C(=O)NC(Cc1ccc(O)cc1)C(=O)NC(CCCCN)C(=O)NC(CC(C)C)C(=O)NC(CCCN=C(N)N)C(=O)N1CCCC1C(=O)NCC(N)=O` (centres undefined) (Pentadecanoyl-[X12]GFPSYKLRPG-NH2; configuration not given here): the GI50 was 36.9 µM in the assay on HT29 colon; 25.9 µM in the assay on EKVX NSCLC; 21.7 µM in the assay on NCI-H23 lung; 27.3 µM in the assay with HL-60(TB) leukemia; 16.8 µM with CCRF-CEM leukemia; 14.7 µM in the assay on RPMI-8226 leukemia. Further, the GI50 in the assay with OVCAR-4 ovarian was 34.8 µM. Moreover, the TGI in the assay on HT29 colon was above 100 µM; in the assay on EKVX NSCLC, 60.5 µM; in the assay on NCI-H23 lung, 49.6 µM; with HL-60(TB) leukemia, 90.8 µM; in the assay on CCRF-CEM leukemia, 32.2 µM; in the assay with RPMI-8226 leukemia, 30.8 µM. For the same molecule, the TGI in the assay on OVCAR-4 ovarian was 87.2 µM.
With `Cc1nc2ccccc2nc1N1CCCC1`, the TGI in the assay with PC-3 prostate, with HT29 colon, in the assay on EKVX NSCLC, in the assay with NCI-H23 lung, with LOX IMVI melanoma and in the assay with UACC-62 melanoma was above 100 µM each time. Moreover, the TGI in the assay on RPMI-8226 leukemia and with OVCAR-4 ovarian was above 100 µM in each case.
Consider `c1ccc(C2C3=C(CCCC3)Nc3nnnn32)cc1` (centres undefined), for which the TGI with PC-3 prostate, with NCI-H23 lung, with LOX IMVI melanoma, with HL-60(TB) leukemia and with UACC-62 melanoma was above 100 µM throughout.
On to `CN(C)CCSc1nccc(-c2ccc(-c3ccnc(SCCN(C)C)n3)s2)n1`, for which the TGI was 10.3 µM with HT29 colon; 37.4 µM with EKVX NSCLC; 28.3 µM in the assay on NCI-H23 lung; 11.9 µM in the assay on LOX IMVI melanoma; 6.01 µM with HL-60(TB) leukemia; 17.4 µM in the assay on CCRF-CEM leukemia. Besides, the TGI with UACC-62 melanoma stood at 29.7 µM; in the assay on RPMI-8226 leukemia, 10.1 µM; in the assay with OVCAR-4 ovarian, 16.2 µM.
